# Results reported in patent US20220023303A1 (DSM IP Assets B.V., priority 2018, published 2022).
# Legend:
# Assay type in all cases: in vivo, humans
# U.S. adults [1] = assay: NHANES 2005-2010 observational analysis: linear regression of self-reported bowel motion frequency on riboflavin intake
# Procedure: Data were obtained from NHANES, a representative survey that measures the health and nutritional status of the U.S. non-institutionalized population. Research protocols were reviewed and approved by the National Center for Health Statistics Research Ethics Review Board (protocol #2005-2006). Ethical review of the protocols used in NHANES protocols is conducted annually, with ongoing changes submitted through an amendment process. All participants gave written consent before participation. Information that could potentially identify participants is removed before data is made publicly available.
# For this analysis, data from adults aged 20 years and over in the survey years 2005-2010 were selected. Participants were selected using a complex, multi-stage probability sampling design to produce a representative sample. Demographic information (gender, age, ethnicity, education, poverty-income ratio) was provided by self-report during an interview conducted by a trained interviewer in the participant's home. Questions relating to Bowel Health were administered to adults aged 20 years and older in the mobile examination center by means of a computer-assisted personal interviewing system. Dietary assessment was conducted by means of two 24-hour dietary recalls, the first conducted in-person at the mobile examination center, and the second conducted by telephone 3 to 10 days after the dietary interview but not on the same day of the week. Pregnancy status in women aged 20 to 44 years was determined by self-report; negative responses were confirmed with a urinary pregnancy test. […] For the survey cycles 2007-2010, the total supplemental intake based on the 30 days questionnaire was also used, based on the totals provided in the dataset. Subjects who self-reported inflammatory bowel disease were excluded.
# (§1) The Bowel Health questionnaire in survey cycles 2005-2006 and 2007-2008 consisted of six questions: four relate to the assessment of the Fecal Incontinence Severity Index (Rockwood, et al 1999 Dis Colon Rectum 42, 1525-1532) one question requests participants' self-reported weekly bowel motion frequency, and one question was about normal stool type on the Bristol Stool Scale (Lewis et al 1997 Scand J Gastroenterol 32: 920-924). A Fecal Incontinence Intensity Score (FISI) was calculated and binned into four categories using the RANK procedure to obtain approximately equal categories. In the 2009-2010 survey cycle, questions about bowel evacuation urgency, constipation and diarrhea incidence over the previous year, and laxative use over the past 30 days, were added.
# Statistical analyses were performed using SAS version 9.3 (SAS Institute Inc., Cary, N.C., USA). Statistical significance was set at 0.05.
# Gender, ethnicity, education, age (continuous), Poverty-Income Ratio (PIR, continuous) were included in the socio-demographic chunk, and vigorous physical activity over the past 30 days (Y/N), dietary supplement use (Y/N), fiber and moisture intake (continuous), self-report of thyroid problems (Y/N) and use of prescription medication (1 or less vs 2 or more) were included in the diet and health chunk.
# The final linear regression using significant predictors was performed using […] to generate the correct variance estimation that takes the complex survey design into account.
# U.S. adults [2] = assay: NHANES: self-reported common stool type (Bristol Stool Scale) by quartiles of riboflavin intake; settings: as riboflavin intake increases (quartiles), FIG. 1
# Procedure: (§2) For this analysis, data from adults aged 20 years and over in the survey years 2005-2010 were selected. Participants were selected using a complex, multi-stage probability sampling design to produce a representative sample. Demographic information (gender, age, ethnicity, education, poverty-income ratio) was provided by self-report during an interview conducted by a trained interviewer in the participant's home. Questions relating to Bowel Health were administered to adults aged 20 years and older in the mobile examination center by means of a computer-assisted personal interviewing system. […] Pregnancy status in women aged 20 to 44 years was determined by self-report; negative responses were confirmed with a urinary pregnancy test. […]
# as §1, with “In the 2009-2010 survey cycle, questions about bowel evacuation urgency, constipation and diarrhea incidence over the previous year, and laxative use over the past 30 days, were added.” left out
# U.S. adults [3] = assay: NHANES: normalcy of bowel motion frequency (3-21 bowel motions per week) by riboflavin intake quartiles; settings: as riboflavin intake increases, food and total riboflavin, FIG. 2
# Procedure: as §2
# as §1, with “In the 2009-2010 survey cycle, questions about bowel evacuation urgency, constipation and diarrhea incidence over the previous year, and laxative use over the past 30 days, were added.” left out
# U.S. adults [4] = assay: NHANES: self-reported urgency to empty the bowels by total riboflavin intake; settings: highest two quartiles of riboflavin intake, FIG. 4
# Procedure: as §2
# as §1, with “In the 2009-2010 survey cycle, questions about bowel evacuation urgency, constipation and diarrhea incidence over the previous year, and laxative use over the past 30 days, were added.” left out
# [5] = Adjusted model (demographics): gender, age, education, Poverty-Income Ratio, ethnicity
# [6] = Adjusted model (diet/health): prescription medications, thyroid problem, fiber and moisture intake
# [7] = Adjusted model (full): all variables
smiles,measurement,setting,value
Cc1cc2nc3c(=O)[nH]c(=O)nc-3n(C[C@H](O)[C@H](O)[C@H](O)CO)c2cc1C [riboflavin],"Beta-coefficient, bowel motion frequency, DS riboflavin intake",U.S. adults [1]; [5],0.0108
same,"Beta-coefficient, bowel motion frequency, Food riboflavin intake",U.S. adults [1]; [5],0.253
same,"Beta-coefficient, bowel motion frequency, Total riboflavin intake",U.S. adults [1]; [5],0.0130
same,"Beta-coefficient, bowel motion frequency, DS riboflavin intake",U.S. adults [1]; [6],0.00807
same,"Beta-coefficient, bowel motion frequency, Food riboflavin intake",U.S. adults [1]; [6],0.0465
same,"Beta-coefficient, bowel motion frequency, Total riboflavin intake",U.S. adults [1]; [6],0.00684
same,"Beta-coefficient, bowel motion frequency, DS riboflavin intake",U.S. adults [1]; [7],0.00895
same,"Beta-coefficient, bowel motion frequency, Food riboflavin intake",U.S. adults [1]; [7],0.0191
same,"Beta-coefficient, bowel motion frequency, Total riboflavin intake",U.S. adults [1]; [7],0.00974
same,"Beta-coefficient, bowel motion frequency, Food riboflavin intake",U.S. adults [1]; Crude model,0.355
same,"Beta-coefficient, bowel motion frequency, Total riboflavin intake",U.S. adults [1]; Crude model,0.0113
same,"Beta-coefficient, bowel motion frequency, DS riboflavin intake","U.S. adults [1]; Crude model, dietary supplements",0.0101
same,Riboflavin intake at which effect on bowel health parameters was seen,U.S. adults [1]; above the median intake,> 2.1 mg/day
same,Relationship between food riboflavin intake and bowel motion frequency,"U.S. adults [1]; after adjusting for socio-demographic, diet and lifestyle co-factors",not significant
same,Relationship between riboflavin intake and bowel motion frequency,"U.S. adults [1]; crude model, intakes from food, dietary supplements and in total","significant, positive relationship"
same,"Relationship between total riboflavin intake and bowel motion frequency, stratified by fiber intake","U.S. adults [1]; dietary fiber intake low, less than the median",no significant relationship
same,Change in bowel motion frequency with riboflavin,U.S. adults [1]; fibre intakes in the upper three quartiles (above 9 g/day),Increases
same,"Relationship between riboflavin intake from dietary supplements and in total, and bowel motion frequency",U.S. adults [1]; fully adjusted model,"significant, positive relationship"
same,Riboflavin intake at which effect on bowel health parameters was especially seen,U.S. adults [1]; highest quartile of riboflavin intake,> 3.1 mg/day
same,"Relationship between total riboflavin intake and bowel motion frequency, stratified by fiber intake",U.S. adults [1]; top two quartiles of dietary fiber intake,only significant
same,Change in stool type 4 (normal defecation),U.S. adults [2],increase
same,Change in stool types 2 (slow transit time) and 5 (soft-fluid stool),U.S. adults [2],reduction
same,Proportion of the population with normal bowel motion patterns,U.S. adults [3],increases
same,"Number of respondents reporting bowel motion urgency occurs ""rarely""",U.S. adults [4],significant increase
